Experimental findings from ChEMBL document CHEMBL3045972, “Effect of side-chain alteration on hormonal activity of nonsteroidal estrogen antagonists” (2010) are described below.

As usually defined, the inhibition in vivo is how much of the control response was suppressed.

The subject of assay [1] is Rattus norvegicus. Kind of assay: Antiestrogenic activity in Rattus norvegicus Sprague-Dawley (rat) assessed as inhibition of ethynylestradiol-induced uterine weight at 10 mg/kg, po qd administered 3 days measured on day 31 relative to control. The format is functional. Particulars: for inhibition in vivo at 10 mg/kg: Rattus norvegicus, Sprague-Dawley, po; for inhibition (INH): 10 mg/kg.

Assay [2] has as its system Rattus norvegicus. The assay is described as follows: Estrogenic activity in Rattus norvegicus (rat) assessed as increase in uterine weight at 10 mg/kg, sc qd after 3 days relative to control. The assay is classed as functional. Particulars: route subcutaneous.
For assay [3], the target named is T1, Estrogen receptor (Rattus norvegicus) (UniProt P06211).
T1 sequence (whole entry): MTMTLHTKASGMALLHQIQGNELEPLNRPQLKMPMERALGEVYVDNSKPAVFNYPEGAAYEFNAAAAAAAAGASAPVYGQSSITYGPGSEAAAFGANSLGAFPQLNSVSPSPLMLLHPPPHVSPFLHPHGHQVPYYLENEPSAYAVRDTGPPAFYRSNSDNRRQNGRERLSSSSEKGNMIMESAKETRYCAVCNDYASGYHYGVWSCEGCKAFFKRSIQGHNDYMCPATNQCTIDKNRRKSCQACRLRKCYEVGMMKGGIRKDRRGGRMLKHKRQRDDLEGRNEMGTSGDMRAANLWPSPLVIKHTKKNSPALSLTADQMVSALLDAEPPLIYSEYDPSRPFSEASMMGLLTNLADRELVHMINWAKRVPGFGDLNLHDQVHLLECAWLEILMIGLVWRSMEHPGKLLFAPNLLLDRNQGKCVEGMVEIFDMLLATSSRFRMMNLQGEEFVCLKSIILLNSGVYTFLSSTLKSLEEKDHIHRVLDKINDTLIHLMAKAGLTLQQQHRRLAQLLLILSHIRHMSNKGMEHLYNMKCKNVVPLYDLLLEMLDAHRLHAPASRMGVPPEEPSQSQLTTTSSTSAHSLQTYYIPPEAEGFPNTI
The assay is described as follows: Binding affinity to Charles Foster Rattus norvegicus (rat) uterine 17beta-estradiol receptor cytosolic form relative to estradiol.

The test system of assay [4] is Rattus norvegicus. The assay is described as follows: Estrogenic activity in Rattus norvegicus (rat) assessed as increase in uterine weight at 3 mg/kg, sc qd after 3 days relative to control. The format is functional. Particulars: route subcutaneous; for uterine weight increase relative to control: 3 mg/kg; for uterine weight increase relative to control at 3 mg/kg: Rattus norvegicus, sc, 72 h, read-out: INH.

The subject of assay [5] is Rattus norvegicus. The assay is described as follows: Antiestrogenic activity in Rattus norvegicus Sprague-Dawley (rat) assessed as inhibition of ethynylestradiol-induced uterine weight at 3 mg/kg, po qd administered 3 days measured on day 31 relative to control. The format is functional. The settings on record: for inhibition in vivo at 3 mg/kg: Rattus norvegicus, Sprague-Dawley, po.

With `COc1ccc2c(c1)OC(C)(C)[C@H](c1ccccc1)[C@@H]2c1ccc(OC(C)C(=O)O)cc1` (relative stereo), the inhibition in vivo at 10 mg/kg in the assay on Rattus norvegicus [1] worked out at 3.8%. Further, the Activity in the assay with Rattus norvegicus [2] is 44.2%.
Consider `CCOC(=O)C(C)Oc1ccc([C@H]2c3ccc(OC)cc3OC(C)(C)[C@@H]2c2ccccc2)cc1` (single isomer, unassigned; (+)), for which the inhibition in vivo at 10 mg/kg in the assay with Rattus norvegicus [1] was 14.3%. Also, in the assay with Rattus norvegicus [2], the Activity worked out at 0.19%.
Turning to `COc1ccc2c(c1)OC(C)(C)[C@H](c1ccccc1)[C@@H]2c1ccc(O)cc1` (relative stereo), the values for the Activity (with Rattus norvegicus [2]; in assay [3]) were 33.6% and less than 0.001%, respectively.
In the case of `COc1ccc2c(c1)OC(C)(C)[C@@H](c1ccccc1)[C@@H]2c1ccc(O)cc1` (relative stereo; 1b) [listing 1 of 2 here], the “uterine weight increase relative to control” value in the assay on Rattus norvegicus [4] is 126.83%. The inhibition in vivo at 3 mg/kg with Rattus norvegicus [5] came to 60%.
The compound `COc1ccc2c(c1)OC(C)(C)[C@@H](c1ccccc1)[C@@H]2c1ccc(OC(C)C(=O)NN)cc1` (relative stereo) [listing 1 of 2 here] returned an Activity in assay [3] of 0.052%.
In assay [3], `COc1ccc2c(c1)OC(C)(C)[C@@H](c1ccccc1)[C@@H]2c1ccc(OC(C)C(=O)O)cc1` (stereo in doubt; 3c) [listing 1 of 2 here] registered an Activity of 0.037%.
Take `COc1ccc2c(c1)OC(C)(C)[C@@H](c1ccccc1)[C@@H]2c1ccc(OC(C)C(=O)O)cc1` (stereo in doubt; 3c) [listing 2 of 2 here]: the “inhibition (INH)” value in the assay on Rattus norvegicus [1] came out at 10%. Besides, the Activity in the assay with Rattus norvegicus [2] (10 mg/kg) amounted to 149%.
In the case of `COc1ccc2c(c1)OC(C)(C)[C@@H](c1ccccc1)[C@@H]2c1ccc(OC(C)C(=O)NN)cc1` (relative stereo) [listing 2 of 2 here], in the assay with Rattus norvegicus [1], the “inhibition (INH)” value is 12.14%. Moreover, the Activity in the assay with Rattus norvegicus [2] (10 mg/kg) is reported as 101.91%.
Take `COc1ccc2c(c1)OC(C)(C)[C@@H](c1ccccc1)[C@@H]2c1ccc(O)cc1` (relative stereo; 1c) [listing 1 of 2 here]: the “uterine weight increase relative to control” value with Rattus norvegicus [4] came to 165%. Besides, the “inhibition (INH)” value in the assay with Rattus norvegicus [5] (3 mg/kg) turned out to be 46.11%.
As for `COc1ccc2c(c1)OC(C)(C)[C@@H](c1ccccc1)[C@@H]2c1ccc(OC(C)C(=O)NN)cc1` (single isomer, unassigned; (-)) [listing 1 of 2 here], the Activity in assay [3] was 0.37%.
As for `COc1ccc2c(c1)OC(C)(C)[C@H](c1ccccc1)[C@H]2c1ccc(OC(C)C(=O)O)cc1` (single isomer, unassigned; (+)), the inhibition in vivo at 10 mg/kg in the assay with Rattus norvegicus [1] turned out to be 16.1%. Also, in the assay with Rattus norvegicus [2], the Activity is on record as 6.88%.
On to `COc1ccc2c(c1)OC(C)(C)[C@H](c1ccccc1)[C@@H]2c1ccc(OC(C)C(=O)NN)cc1` (relative stereo), for which the inhibition in vivo at 10 mg/kg with Rattus norvegicus [1] came out at 1.07%. Also, the Activity stood at 110.22% in the assay on Rattus norvegicus [2] and 0.011% in assay [3].
Turning to `COc1ccc2c(c1)OC(C)(C)[C@@H](c1ccccc1)[C@@H]2c1ccc(O)cc1` (relative stereo; 1c) [listing 2 of 2 here], the Activity in assay [3] stood at 15.7%.
Take `COc1ccc2c(c1)OC(C)(C)[C@@H](c1ccccc1)[C@@H]2c1ccc(OC(C)C(=O)O)cc1` (relative stereo): in the assay with Rattus norvegicus [1], the inhibition in vivo at 10 mg/kg was 10.8%. In the assay with Rattus norvegicus [2] (10 mg/kg), the Activity came out at 21.6%.
For the compound `COc1ccc2c(c1)OC(C)(C)[C@@H](c1ccccc1)[C@@H]2c1ccc(OC(C)C(=O)NN)cc1` (single isomer, unassigned; (-)) [listing 2 of 2 here], in the assay on Rattus norvegicus [1], the “inhibition (INH)” value was 25.37%. Besides, the Activity with Rattus norvegicus [2] (10 mg/kg) came out at 155.02%.
The compound `COc1ccc2c(c1)OC(C)(C)[C@@H](c1ccccc1)[C@@H]2c1ccc(O)cc1` (relative stereo; 1b) [listing 2 of 2 here] came in with an Activity in assay [3] of 5.42%.
For `CCOC(=O)C(C)Oc1ccc([C@@H]2c3ccc(OC)cc3OC(C)(C)[C@H]2c2ccccc2)cc1` (single isomer, unassigned; (-)), the uterine weight increase relative to control at 3 mg/kg in the assay with Rattus norvegicus [4] is 122%. Also, the inhibition in vivo at 3 mg/kg in the assay on Rattus norvegicus [5] stood at 40.6%.
`CCOC(=O)C(C)Oc1ccc([C@@H]2c3ccc(OC)cc3OC(C)(C)[C@H]2c2ccccc2)cc1` (relative stereo) [listing 1 of 2 here] gave an Activity in assay [3] of 0.029%.
Turning to `CCOC(=O)C(C)Oc1ccc([C@@H]2c3ccc(OC)cc3OC(C)(C)[C@@H]2c2ccccc2)cc1` (relative stereo), in the assay on Rattus norvegicus [1], the inhibition in vivo at 10 mg/kg stood at 3.71%. In addition, the Activity in the assay with Rattus norvegicus [2] is on record as 71.58%.
Turning to `CCOC(=O)C(C)Oc1ccc([C@@H]2c3ccc(OC)cc3OC(C)(C)[C@H]2c2ccccc2)cc1` (relative stereo) [listing 2 of 2 here], the inhibition in vivo at 10 mg/kg in the assay with Rattus norvegicus [1] came to 3.98%. Also, the Activity with Rattus norvegicus [2] was found to be 43.7%.
Turning to `COc1ccc2c(c1)OC(C)(C)[C@H](c1ccccc1)[C@H]2c1ccc(OC(C)C(=O)NN)cc1` (single isomer, unassigned; (+)), the inhibition in vivo at 10 mg/kg in the assay with Rattus norvegicus [1] is 6.21%. The values for the Activity (with Rattus norvegicus [2]; in assay [3]) were 6.68% and 0.24%, respectively.
`COc1ccc2c(c1)OC(C)(C)[C@H](c1ccccc1)[C@H]2c1ccc(O)cc1`: the uterine weight increase relative to control at 3 mg/kg in the assay with Rattus norvegicus [4] worked out at 109%. Besides, the inhibition in vivo at 3 mg/kg in the assay with Rattus norvegicus [5] was found to be 50%. In addition, the Activity in assay [3] was 2.1%.
